Test results reported in patent publication US9365523B2, “Imidazolyl amide compounds and uses related thereto” (priority 2011, dated 2016).
Where two headings read alike, the source gives them in different places.

Key:
[1] = system: HeLa, Vero-Slam, MDCK cell lines and primary human PBMCs; test: Quantification of compound cytotoxicity (metabolic activity of cells)
Experimental: A non-radioactive cytotoxicity assay (CytoTox 96 Non-Radioactive Cytotoxicity Assay, Promega) was employed to metabolic activity of cell after exposure to a compound. In a 96-well plate format, 10,000 cells per well were incubated at 37° C. for 24 hours in four replicates per concentration tested in the presence of compound ranging from 75 μM to 293 nM in two-fold dilutions. Conversion of a tetrazolium salt (INT) into a colored formazan product by cellular lactate dehydrogenase released into the culture supernatants was then measured at 490 nm using a BioRad plate reader. […] Values were plotted in dose-response curves and, if applicable, CC50 concentrations calculated using the Prism 5 software package.

cdc2-cyclin B kinase = format: cell-based
[2] = system: virus-encoded MeV-F and influenza A/WSN M2; format: cell-based; conditions: 100 nM; paramyxovirus or orthomyxovirus infection
influenza A/WSN [3] = format: cell-based, influenza A virus
MeV-Alaska [4] = test: In vitro virus adaptation (emergence of resistance); format: cell-based, measles virus; conditions: after 90 days of continued viral incubation
Experimental: MeV-Alaska remains sensitive to the compound after continued adaptation events for a 90-day period, while resistance (extensive viral CPE detectable in the presence of 30 μM compound) to pathogen directed AS-136A emerges in step-wise adaptations after 15-25 days. Three independent adaptations (represented by solid, dotted and dashed lines, respectively) were pursued for each compound.
To assess the emergence of viral resistance to inhibition, adaptation attempts were carried out. […] Equally infected cells treated with the virus polymerase targeted RdRp inhibitor AS-136A were examined in parallel for comparison. When cultures became overconfluent, cells were diluted and reseeded for continued incubation in the presence of the same compound concentration as before. At detection of extensive cell-to-cell fusion, cell-associated viral particles were released by two freeze/thaw cycles, diluted 10-fold and used for parallel infections of fresh cell monolayers in the presence of compound at unchanged and doubled concentrations. Cultures treated with the highest compound concentrations in which virus-induced cytopathicity became eventually detectable were used for further adaptation. The approach was terminated after 90 days of continued incubation or when virus-induced cytopathicity was readily detectable in the presence of 30 μM compound.

MeV-Alaska [5] = test: Cell priming (pre-treatment and wash-out before infection); conditions: 1.0 μM, 60 minutes pre-treatment
Experimental: To assess cell priming, Vero-Slam cells (3×10^5 cells/wellin a 12-well plate format) were incubated in the presence of JMN3-003 at 1.0 μM for one hour at 37° C. at the indicated time points pre-infection, followed by extensive washing and further incubation in growth media. Immediately before infection, cells were reseeded at a density of 2.5×10^5 per well and infected with MeV-Alaska at an MOI=0.2 pfu/cell. […] Cell-associated viral particles were then harvested and infectious titers determined by TCID50 titration.

MeV-Alaska particles = test: Virus pre-incubation (virucidal activity) assay; format: cell-based, measles virus; conditions: 1.0 μM, 60 minutes
Experimental: D) JMN3-003 lacks virucidal activity.
Reference wells were kept at 1.0 μM JMN3-003 for the duration of the experiment.

influenza A/WSN [6] = test: Quantitation of influenza A/WSN antigenome and released progeny genome copies; format: cell-based, influenza A virus; conditions: MDCK cells, 24 hours
in vitro = conditions: human S-9 fractions
Experimental: (§1) A) Incubation of the article with human liver S9 fractions for up to 60 minutes, followed by LC-MS/MS analysis of the material remaining. […] B) Incubation of JMN3-003 for up to 120 minutes with human plasma derived from mixed, healthy donors, followed by LC-MS/MS quantification of the material remaining.
To estimate metabolic stability of the article, JMN3-003 was mixed with liver S9 fractions (protein concentration 2.5 mg/ml) from pooled mixed gender humans (XenoTech) at a final concentration of 1 μM and reactions initiated by the addition of cofactors (1.14 mM NADPH, 1.43 mM glucose-6-phosphate, 1.43 mM uridine 5′-diphosphoglucuronic acid, 9.42 mM potassium chloride, 2.28 mM magnesium chloride) in 100 mM potassium phosphate buffer, pH 7.4. Samples were incubated at 37° C. with mixing, aliquots removed after 0, 15, 30 and 60 minutes and subjected to methanol precipitation. Cleared supernatants were analyzed by reversed-phase LC-MS/MS (Applied Biosystems API 4000 QTRAP with heated nebulizer (Turbo IonSpray for JMN5-166) and peak areas measured to calculate half life and percent of input compound remaining according to the formulas t½=(−0.693/slope of linear regression analysis of log transformed peak area versus) and % input remaining=(peak area of test compound at tx/peak area of test compound at t0)*100. Positive controls to assess the metabolic competency of the liver S9 fractions were 7-Ethoxycoumarin, Propranolol, and Verapamil (Sigma), which were analyzed in parallel to the article. To determine compound plasma stability, articles were mixed with freshly prepared human plasma at a final concentration of 0.5 mM and incubated at 37° C. for up to 120 minutes. Aliquots were removed at distinct time points as indicated, subjected to methanol precipitation of plasma proteins, and cleared supernatants analyzed by LC-MS/MS with detection of the compound at 254 nm. Values are expressed as percent of compound remaining at each time relative to the amount of that compound present at the starting time point.

[7] = system: MeV-Alaska mRNA and antigenome; format: cell-based, measles virus; conditions: 100 nM
MeV-Alaska [8] = test: Post-infection time-of-addition study; conditions: 1.0 μM
[9] = 120-minute incubation
Experimental: as §1
To estimate metabolic stability of the article, JMN3-003 was mixed with liver S9 fractions (protein concentration 2.5 mg/ml) from pooled mixed gender humans (XenoTech) at a final concentration of 1 μM and reactions initiated by the addition of cofactors (1.14 mM NADPH, 1.43 mM glucose-6-phosphate, 1.43 mM uridine 5′-diphosphoglucuronic acid, 9.42 mM potassium chloride, 2.28 mM magnesium chloride) in 100 mM potassium phosphate buffer, pH 7.4. […] Cleared supernatants were analyzed by reversed-phase LC-MS/MS (Applied Biosystems API 4000 QTRAP with heated nebulizer (Turbo IonSpray for JMN5-166) and peak areas measured to calculate half life and percent of input compound remaining according to the formulas t½=(−0.693/slope of linear regression analysis of log transformed peak area versus) and % input remaining=(peak area of test compound at tx/peak area of test compound at t0)*100. Positive controls to assess the metabolic competency of the liver S9 fractions were 7-Ethoxycoumarin, Propranolol, and Verapamil (Sigma), which were analyzed in parallel to the article. […]

MeV-Alaska [10] = format: cell-based, measles virus; conditions: primary human PBMCs
[11] = system: MeV H and F mediated membrane fusion; test: MeV glycoprotein-mediated cell-to-cell fusion assay; conditions: microscopic and luciferase reporter-based
HeLa cells = test: Flow-cytometric analysis of cell cycle progression; conditions: JMN3-003 36 hours
Experimental: A) FACS analysis of acridine orange-stained HeLa cells incubated in the presence of JMN3-003 or hydroxyurea for 36 hours, or nocodazole for 16 hours. Dark grey shaded areas show unstained cells, light grey areas correspond to vehicle-treated control cells, and areas under open black curves represent treated cell populations. Dashed vertical lines indicate 2 N (G1/S) and 4N (G2/M) DNA contents. Data shown are representative of three experiments and reflect 10,000 events/treatment conditions.
Green fluorescence at 525 nm resulting from DNA intercalating acridine orange was then measured using a BD LSRII flow cytometer and FlowJo software (Tree Star) for data analysis. For comparison, unstained and stained, solvent-only exposed cells were examined in parallel.

Experimental for Vero cells: Values reflect cell divisions per day and are based on averages of six independent replicate experiments±SEM.
Cells were then washed extensively and reseeded at a density of 1×10^5 cells per well, followed by continued incubation at 37° C. and assessment of life/dead cell numbers every 24 hours using a Countess automated cell counter (Invitrogen). Cells were reseeded as before when fastest growing cultures approached confluency. Growth rates were calculated for each 24-hour time interval using the Prism software package (GraphPad Software Inc.) based on the formula Y=Y0*exp(K*X) with Y equaling life cell numbers, Y0 the Y value at the starting time (t0), and K the growth constant equaling ln(2)/doubling-time.

## COc1ccc(-n2c(SC(C)C(=O)Nc3ccc(C)cc3Cl)nc3ccccc32)cc1 (stereo not drawn) [JMN3-003]
[1]
  Metabolic activity of cells exposed to compound: unchanged
  direct cytotoxicity: low
cdc2-cyclin B kinase
  steady state levels of phosphorylated cdc2-cyclin B kinase: increased steady state levels of phosphorylated cdc2-cyclin B kinase
[2]
  expression of virus-encoded proteins: fully blocked
Influenza A/WSN [3]
  A/WSN inhibition: vanished entirely
Influenza A/WSN [3]; some rodent cell lines
  A/WSN inhibition: less effective
MeV-Alaska [4]
  change in the tolerated dose: only marginal increases
MeV-Alaska [5]
  inhibitory effect after pre-treatment of cells and wash-out: any substantial inhibitory effect was not detect
MeV-Alaska particles
  antiviral effect of preincubation of viral particles (virucidal activity): lacked any appreciable antiviral effect
Influenza A/WSN [6]
  drop in relative viral antigenome levels: > 100 fold
  reduction in genome copies of released progeny virions: > 10,000 fold
In vitro
  extrapolated half-life: approximately 200 minutes
In vitro; 60-minute exposure
  input material remaining intact: approximately 80%
[7]
  reduction of viral mRNA and antigenome copy numbers relative to vehicle: > 100 fold
MeV-Alaska [8]
  inhibition profile in time-of-addition experiment: very closely resembled the profile of the AS-136A RdRp blocker class
[9]
  stability in human plasma: virtually unaffected
MeV-Alaska [10]
  inhibitory activity against MeV-Alaska: extended fully
Vero cells
  proliferation rates after removal of the compound: resumed those of untreated control cells
MeV RdRp
  compound concentration at which luciferase reporter expression was fully blocked: approximately 100 nM
[11]
  MeV glycoprotein-mediated cell-to-cell fusion: indistinguishable from that seen in vehicle-treated controls
HeLa cells
  DNA content of treated cells by flow cytometry: accumulation of cells in a single population with 2N DNA content
